Laboratory results: US20250295607A1, “OPHTHALMIC COMPOSITIONS FOR TREATMENT OF OCULAR SURFACE DAMAGE AND SYMPTOMS OF DRYNESS” (Novaliq GmbH, priority 2018, published 2025)

Tests used:
[1] = tested on: subjects with Dry Eye Disease; experiment: Phase 2 multi-center, randomized, double-masked, saline-controlled clinical study (NCT03333057), signs and symptoms overall; type: in vivo, human
Experimental: A Phase 2, Multi-Center, Randomized, Double-Masked, Saline-Controlled Study to Evaluate the Effect of 1-Perfluorohexyloctane (NOV03) at two different dosing regimens on signs and symptoms of Dry Eye Disease (DED) was conducted. The study was performed at 11 investigational cites in the United States. The study was reviewed and approved by the respective ethics committees and registered at www.clinicaltrials.gov (NCT03333057).
The primary objective for this study is to evaluate the efficacy, safety, and tolerability of an ophthalmic composition essentially consisting of 1-perfluorohexyloctane (NOV03) at two different dosing regimens (QID, BID) compared to saline solution in subjects with Dry Eye Disease. The secondary objectives are to compare the effect of an ophthalmic composition essentially consisting of 1-perfluorohexyloctane (NOV03) and saline solution at two different dosing regimens on signs and symptoms of Dry Eye Disease and to evaluate the pharmacokinetics after 57 days dosing.
Subjects must: • a. Be at least 18 years of age. • b. Provide written informed consent. • c. Have a subject reported history of Dry Eye Disease in both eyes for at least 6 months prior to Visit 0. • d. […] Have Meibomian Gland Dysfunction (MGD) defined as MGD score≥3 (secretion of 5 central glands on lower eyelid will be evaluated, each will be scored from 0-3; 0=normal, 1=thick/yellow, whitish, particulate 2=paste; 3=none/occluded; total score will range from 0-15) at Visit 0 and Visit 1. • h. […]
Screening (Visit 0); Within 14 days before Visit 1 Subjects will be required to sign an Informed Consent before completing any study related procedure. At the screening visit, vital signs will be assessed and the subject will give blood for safety laboratory tests. […]
Baseline Visit Day 1 (Visit 1): On Day 1 (Visit 1), eligible subjects will be evaluated for baseline signs and symptoms of dry eye disease. […]
Visits 2-4; Subjects will return to the clinic on Day 15±1 (Visit 2), 29±2 (Visit 3), and 57±2 (Visit 4) to be evaluated for signs and symptoms of dry eye disease. […]

[2] = tested on: cornea of subjects with Dry Eye Disease; experiment: Corneal fluorescein staining, NEI grading scale (ocular surface damage); type: in vivo, human
Text: A Wratten #12 yellow filter will be used to enhance the ability to grade fluorescein staining. The staining will be graded with the NEI (National Eye Institute) Grading
Scale. Only the staining of the cornea will be graded. Digital images of fluorescein staining may be taken for digital analysis.
Based on the NEI/Industry Workshop Scale, the grade of the ocular surface damage for each eye is scored for each of the five regions of the cornea based on measuring fluorescein uptake.
Grade 0 will be specified when no fluorescein staining is present. Grades 1, 2 and 3 define an increasing density and degree of observed fluorescein staining, The maximum total score for each eye is 15.

[3] = tested on: subjects with Dry Eye Disease; experiment: Visual Analog Scale (VAS) Eye Dryness Score questionnaire; type: in vivo, human; conditions: QID
Experimental: An Eye Dryness Score was determined based on a 10-item questionnaire provided to subjects, where subjects were asked to rate their ocular symptoms (both eyes simultaneously) due to ocular dryness by placing a vertical mark on a horizontal line scale to indicate the level of discomfort (0% corresponds to “no dryness” and 100% corresponds to “maximal dryness”). Subjects are asked about the severity of dry eye symptoms, namely the symptoms of dryness representing the first 8 questions of the VAS questionnaire corresponding to: dryness (corresponding to the first question in the VAS questionnaire, and also referred to in the text and in the graphs as “severity of dryness”; with the terms “dryness” and “severity of dryness” being used interchangeably herein as a dry eye symptom designation, sticky feeling, burning/stinging, foreign body sensation, itching, blurred vision, sensitivity to light, and pain.
Subjects are also asked about their awareness of their dry eye symptoms and frequency of their dry eye symptoms, namely questions 9-10 of the VAS questionnaire. The rating for these questions is indicated by the subject by placing a vertical mark on a horizontal line scale to indicate the percentage of time of awareness or frequency, with 0% corresponding to ‘never’ and 100% corresponding to ‘all of the time’.

[4] = tested on: subjects with Dry Eye Disease; experiment: Ocular Surface Disease Index (OSDI) questionnaire; type: in vivo, human
Text: The Ocular Surface Disease Index (OSDI©)) is perhaps the most frequently used survey instrument for the assessment of ocular surface disease severity in dry eye research. The OSDIC was created by the Outcomes Research Group at Allergan Inc in order to quickly assess the symptoms of ocular irritation in dry eye disease and how they affect functioning related to vision. This 12-item questionnaire assesses dry eye symptoms and the effects it has on vision-related function in the past week of the patient's life. The questionnaire has 3 subscales: ocular symptoms, vision-related function, and environmental triggers. Patients rate their responses on a 0 to 4 scale with 0 corresponding to “none of the time” and 4 corresponding to “all of the time.” A final score is calculated which ranges from 0 to 100.
The questions assess the following: dry eye symptoms experienced by the patient within past week: sensitivity to light, gritty sensation, pain or sore eyes, blurriness, and poor vision; vision-related function, in terms of problems in the past week with regards to: reading, driving at night, working on a computer or bank machine, watching television; and in terms of environmental factors or triggers i.e. discomfort experienced in the past week during: windy conditions, places with low humidity, and areas with air condition.
Subtotals are obtained for all the questions, as well as the total number of questions answered. The OSDI index is assessed based on a scale of 0 to 100, with higher scores representing a greater disability. The OSDI index is calculated from the sum of the scores multiplied by a factor of 25, over the total number of questions answered. Higher scores represent a greater degree/severity and impact of dry eye disease.

Density = type: physicochemical
[5] = QID, after 2 weeks of treatment
[6] = QID, significant also at 4 weeks, 8 weeks

SMILES: CCCCCCCCC(F)(F)C(F)(F)C(F)(F)C(F)(F)C(F)(F)C(F)(F)F [NOV03, 1-perfluorohexyloctane]
- signs and symptoms of dry eye disease ([1]; 4 times daily, single drop of 10-12 μl, highly symptomatic DED population with significant MGD involvement): relevant and statistically significant improvements
- benefit in patient population by baseline characteristics ([1]; QID, OSDI between 38 and 72, TBUT between 2.1 and 3.9 seconds or MGD score between 4.0 and 11.2, and/or total corneal fluorescein staining between 4.8 and 9.2): beneficial
- benefit in patients meeting one or more baseline criteria ([1]; QID, TBUT equal or lower than 3, OSDI higher than 57, total corneal fluorescein staining between 5 and 9, MGD score equal or higher than 7, Schirmer I Test greater or equal than 10 mm): especially benefitted
- reduction of ocular surface damage, superior corneal region ([2]; QID vs saline): did not show such clear improvement
- reduction of ocular surface damage, central corneal region ([2]; QID vs saline, 2, 4, 8 weeks): clear improvements
- reduction of ocular surface damage, inferior corneal region ([2]; QID vs saline, 2, 4, 8 weeks): clear improvements
- reduction of ocular surface damage, nasal corneal region ([2]; QID vs saline, 2, 4, 8 weeks): clear improvements
- reduction of ocular surface damage, temporal corneal region ([2]; QID vs saline, 2, 4, 8 weeks): clear improvements
- patients with improvement of ≥1 grade in central corneal staining [2, 5]: 39%
- patients with improvement of ≥3 grades in total corneal staining [2, 5]: 32%
- patients with improvement of ≥1 grade in central corneal staining ([2]; QID, after 8 weeks): 50%
- patients with improvement of ≥3 grades in total corneal staining ([2]; QID, after 8 weeks): 42%
- total corneal fluorescein staining (primary efficacy endpoint), reduction of ocular surface damage of the total corneal region ([2]; QID, at 8 weeks, vs saline): met its prespecified primary efficacy endpoint
- start of treatment effect relating to the signs [2, 6]: 2 weeks
- VAS pain ([3]; at the 4 week timepoint, higher variability): did not improve
- VAS awareness of dryness ([3]; over the placebo group): highly statistical significant improvement
- VAS blurred vision ([3]; over the placebo group): highly statistical significant improvement
- VAS burning/stinging ([3]; over the placebo group): highly statistical significant improvement
- VAS foreign body sensation ([3]; over the placebo group): highly statistical significant improvement
- VAS frequency of dryness ([3]; over the placebo group): highly statistical significant improvement
- VAS itching ([3]; over the placebo group): highly statistical significant improvement
- VAS sensitivity to light ([3]; over the placebo group): highly statistical significant improvement
- VAS severity of dryness ([3]; over the placebo group): highly statistical significant improvement
- VAS sticky feeling ([3]; over the placebo group): highly statistical significant improvement
- VAS severity of dryness in patients with Schirmer I Test of greater or equal than 10 mm ([3]; subpopulation with normal tear production, DED associated with MGD, 8 weeks): significant change from baseline
- start of treatment effect relating to the VAS symptoms ([3]; significant also at 4 weeks, 8 weeks): 2 weeks
- OSDI blurred vision ([4]; QID vs saline): clear improvements
- OSDI eyes feeling gritty ([4]; QID vs saline): clear improvements
- OSDI painful or sore eyes ([4]; QID vs saline): clear improvements
- OSDI poor vision ([4]; QID vs saline): clear improvements
- OSDI problems with driving at night ([4]; QID vs saline): clear improvements
- OSDI problems with watching TV ([4]; QID vs saline): clear improvements
- OSDI reading problems ([4]; QID vs saline): clear improvements
- OSDI sensitivity to light ([4]; QID vs saline): clear improvements
- OSDI uncomfortable in areas that are air conditions ([4]; QID vs saline): clear improvements
- OSDI uncomfortable in areas with low humidity ([4]; QID vs saline): clear improvements
- OSDI uncomfortable under windy conditions ([4]; QID vs saline): clear improvements
- OSDI problems with working with a computer or bank machine (ATM) ([4]; QID, at the 4 and 8-week timepoint, higher data variability): did not improve
- total OSDI score ([4]; QID, over the placebo group): highly statistical significant improvement
- start of treatment effect relating to the OSDI symptoms [4, 6]: 2 weeks
- density (Density): 1.35 g/mL
- density (d) (Density): 1.35 g/mL
